According to patent publication US20040156869A1, “2-substituted quinazolin-4-ylamine analogues” (Neurogen Corporation, priority 2002, published 2004):

molecular target: human capsaicin receptor (VR1) (Homo sapiens, UniProt Q8NER1); experiment: Capsaicin receptor binding assay ([3H]RTX competition, VR1-transfected HEK293 membranes)
Sequence (Q8NER1 whole entry): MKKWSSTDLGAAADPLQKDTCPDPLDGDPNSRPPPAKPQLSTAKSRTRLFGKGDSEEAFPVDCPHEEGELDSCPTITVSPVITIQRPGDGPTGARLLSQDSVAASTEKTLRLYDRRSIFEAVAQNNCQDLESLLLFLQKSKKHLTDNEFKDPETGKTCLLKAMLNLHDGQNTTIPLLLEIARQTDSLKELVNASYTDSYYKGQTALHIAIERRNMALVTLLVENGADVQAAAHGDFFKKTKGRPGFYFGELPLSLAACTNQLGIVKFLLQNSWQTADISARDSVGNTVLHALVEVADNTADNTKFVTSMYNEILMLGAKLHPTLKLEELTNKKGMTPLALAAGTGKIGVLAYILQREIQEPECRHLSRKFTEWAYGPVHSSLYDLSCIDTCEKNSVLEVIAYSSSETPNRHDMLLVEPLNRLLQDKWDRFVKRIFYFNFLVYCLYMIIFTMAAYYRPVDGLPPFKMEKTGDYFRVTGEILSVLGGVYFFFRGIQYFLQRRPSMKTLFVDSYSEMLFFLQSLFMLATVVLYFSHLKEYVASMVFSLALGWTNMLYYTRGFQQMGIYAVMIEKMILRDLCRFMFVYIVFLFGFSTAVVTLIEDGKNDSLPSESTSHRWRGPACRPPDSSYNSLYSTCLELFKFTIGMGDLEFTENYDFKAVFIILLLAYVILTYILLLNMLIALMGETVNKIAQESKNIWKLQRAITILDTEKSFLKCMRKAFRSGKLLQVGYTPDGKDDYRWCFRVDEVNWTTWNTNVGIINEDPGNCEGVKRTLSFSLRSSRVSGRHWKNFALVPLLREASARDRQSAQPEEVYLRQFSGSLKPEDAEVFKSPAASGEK

Ki, < 1 µM:
NC(=O)C1CCN(Cc2nc(Nc3ccc(C(F)(F)F)nc3)c3ccc(-c4ncccc4C(F)(F)F)cc3n2)CC1 [Compound 487, 1-[7-(3-Trifluoromethyl-pyridin-2-yl)-4-(6-trifluoromethyl-pyridin-3-ylamino)-quinazolin-2-ylmethyl]-piperidine-4-carboxylic acid amide]
FC(F)(F)c1ccc(Nc2nc(CNCc3ccccc3)nc3cc(-c4ncccc4C(F)(F)F)ccc23)nc1 [Compound 560, [2-(Benzylamino-methyl)-7-(3-trifluoromethyl-pyridin-2-yl)-quinazolin-4-yl]-(5-trifluoromethyl-pyridin-2-yl)-amine]
FC(F)(F)c1ccc(Nc2nc(COCCN3CCCCC3)nc3cc(-c4ncccc4C(F)(F)F)ccc23)cn1 [Compound 30, [2-(2-Piperidin-1-yl-ethoxymethyl)-7-(3-trifluoromethyl-pyridin-2-yl)-quinazolin-4-yl]-(6-trifluoromethyl-pyridin-3-yl)-amine]
CCOCc1nc(Nc2ccc(C(C)C)cc2)c2ccc(-c3ncccc3C)nc2n1 [Compound 139, [2-Ethoxymethyl-7-(3-methyl-pyridin-2-yl)-pyrido[2,3-d]pyrimidin-4-yl]-(4-isopropyl-phenyl)-amine]
C=C(C)CN(CC)CCc1nc(Nc2ccc(C(F)(F)F)cc2)c2ccc(-c3ncccc3C(F)(F)F)cc2n1 [Compound 423, [2-{2-[Ethyl-(2-methyl-allyl)-amino]-ethyl}-7-(3-trifluoromethyl-pyridin-2-yl)-quinazolin-4-yl]-(4-trifluoromethyl-phenyl)-amine]
CC(C)CCNC(=O)c1nc(Nc2ccc(C(F)(F)F)cc2)c2ccc(-c3ncccc3C(F)(F)F)cc2n1 [Compound 761, 4-(4-Trifluoromethyl-phenylamino)-7-(3-trifluoromethyl-pyridin-2-yl)-quinazoline-2-carboxylic acid (3-methyl-butyl)-amide]
C[C@@H]1CN(Cc2nc(Nc3ccc(C(F)(F)F)cc3)c3ccc(-c4ccccc4C(F)(F)F)cc3n2)C[C@H](C)O1 [Compound 620, [2-(2,6-Dimethyl-morpholin-4-ylmethyl)-7-(2-trifluoromethyl-phenyl)-quinazolin-4-yl]-(4-trifluoromethyl-phenyl)-amine (cis)]
Cc1ccc(Nc2nc(COCC(C)C)nc3nc(-c4ncccc4C(F)(F)F)ccc23)cc1C [Compound 257, (3,4-Dimethyl-phenyl)-[2-isobutoxymethyl-7-(3-trifluoromethyl-pyridin-2-yl)-pyrido[2,3-d]pyrimidin-4-yl]-amine]
CNC(=O)c1nc(Nc2ccc(C(F)(F)F)cc2)c2ccc(-c3ncccc3C(F)(F)F)nc2n1 [Compound 449, 4-(4-Trifluoromethyl-phenylamino)-7-(3-trifluoromethyl-pyridin-2-yl)-pyrido[2,3-d]pyrimidine-2-carboxylic acid methylamide]
CC1CCCN(Cc2nc(Nc3ccc(C(F)(F)F)cc3)c3ncc(-c4ncccc4C(F)(F)F)cc3n2)C1 (stereo not drawn) [Compound 669, [2-(3-Methyl-piperidin-1-ylmethyl)-7-(3-trifluoromethyl-pyridin-2-yl)-pyrido[3,2-d]pyrimidin-4-yl]-(4-trifluoromethyl-phenyl)-amine]
COc1ccccc1CNCc1nc(Nc2ccc(C(F)(F)F)nc2)c2ccc(-c3ncccc3C(F)(F)F)cc2n1 [Compound 576, [2-[(2-Methoxy-benzylamino)-methyl]-7-(3-trifluoromethyl-pyridin-2-yl)-quinazolin-4-yl]-(6-trifluoromethyl-pyridin-3-yl)-amine]
Cc1cc(Nc2nc(COCC(C)C)nc3nc(-c4ncccc4C(F)(F)F)ccc23)ccc1C(F)(F)F [Compound 166, [2-Isobutoxymethyl-7-(3-trifluoromethyl-pyridin-2-yl)-pyrido[2,3-d]pyrimidin-4-yl]-(3-methyl-4-trifluoromethyl-phenyl)-amine]
